The target of one test is Sigma 2 receptor. The test can be described thus: Inhibition of [3H]DTG binding to Sigma receptor type 2 in rat liver membrane. The test is classed as cell membranes.
The target in test [1] is Sigma non-opioid intracellular receptor 1 (Homo sapiens) (UniProt Q99720). Kind of test: Relative affinity for sigma-2 over sigma-1 receptors.
The target in test [2] is T1, 3-beta-hydroxysteroid-Delta(8),Delta(7)-isomerase (Cavia porcellus, UniProt Q60490).
T1 sequence (Q60490 whole entry): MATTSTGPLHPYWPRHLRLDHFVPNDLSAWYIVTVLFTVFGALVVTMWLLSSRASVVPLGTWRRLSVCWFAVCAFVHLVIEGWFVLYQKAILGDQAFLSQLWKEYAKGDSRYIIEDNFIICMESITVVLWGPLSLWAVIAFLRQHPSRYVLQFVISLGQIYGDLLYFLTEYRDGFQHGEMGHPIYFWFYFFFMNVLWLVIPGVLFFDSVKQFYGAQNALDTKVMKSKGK
The test can be described thus: Inhibition of [3H]-emopamil binding to Sterol delta 8-delta 7 isomerase in guinea pig liver membrane. The test is classed as cell membranes.

A further test is filed under the species Cavia porcellus. The test can be described thus: Relative affinity for sterol delta-(8)-delta-(7) isomerase over sigma-1 receptor.

Chain of Sigma non-opioid intracellular receptor 1 (Homo sapiens) (Q99720 whole entry): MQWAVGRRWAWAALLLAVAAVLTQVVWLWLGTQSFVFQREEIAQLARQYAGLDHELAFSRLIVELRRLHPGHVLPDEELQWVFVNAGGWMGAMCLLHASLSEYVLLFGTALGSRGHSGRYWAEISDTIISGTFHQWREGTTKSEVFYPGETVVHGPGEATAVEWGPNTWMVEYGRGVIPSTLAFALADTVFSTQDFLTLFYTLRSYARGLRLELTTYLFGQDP

The Ki is a measure of affinity in units of concentration, obtained from inhibition or displacement. High values mean lower affinity, low ones higher affinity. In the case of `CC1CCN([C@@H](C)COc2ccc(Cl)cc2)CC1`, the figures for the Ki (at Sigma 2 receptor; in test [2]) were 0.186 µM and 0.00373 µM, respectively. In addition, the Ratio in test [1] is 547; in the test filed under Cavia porcellus, 11.

For the molecule `CC1CCN(CCCOc2ccc(Cl)cc2)CC1`, the Ki is 0.0386 µM on Sigma 2 receptor and 0.00965 µM in test [2].

For `C(/C=C/c1ccc2c(c1)OCO2)=C\CN1CCCCC1`, the affinity at Sigma 2 receptor, expressed as Ki, was 0.554 µM.

As for `CC1CCN([C@H](C)COc2ccc(Cl)cc2)CC1`, the inhibition constant (Ki) on Sigma 2 receptor stood at 0.0523 µM; in test [2], 0.0275 µM. Besides, the Ratio in test [1] worked out at 44; in the test filed under Cavia porcellus, 23.

In the case of `CC1CCN(C[C@H](C)Oc2ccc(Cl)cc2)CC1`, the inhibitory constant (Ki) at Sigma 2 receptor was found to be 0.332 µM; in test [2] it was 0.0351 µM.

`CC1CCN(C[C@@H](C)Oc2ccc(Cl)cc2)CC1`: the figures for the Ki (at Sigma 2 receptor; in test [2]) were 0.318 µM and 0.00338 µM, respectively.

Take `CC1CCN([C@@H](C)CCOc2ccc(Cl)cc2)CC1`: the values for the inhibition constant (Ki) (at Sigma 2 receptor; in test [2]) were 0.0316 µM and 0.037 µM, respectively.

For the molecule `CC1CCN(C[C@H](C)COc2ccc(Cl)cc2)CC1`, the values for the Ki (at Sigma 2 receptor; in test [2]) were 0.0408 µM and 0.0145 µM, respectively. For the same molecule, the Ratio in test [1] came out at 37; in the test filed under Cavia porcellus, 13.

In the case of `CC(C(O)c1ccc(O)cc1)N1CCC(Cc2ccccc2)CC1` (racemic) [IFENPRODIL], the affinity in test [2] corresponds to a Ki of 0.00271 µM.

Turning to `CC1CCN(CC[C@@H](C)Oc2ccc(Cl)cc2)CC1`, the Ki came to 0.0139 µM at Sigma 2 receptor and 0.0301 µM in test [2].

`CC1CCN(CCOc2ccc(Cl)cc2)CC1`: the values for the Ki (on Sigma 2 receptor; in test [2]) were 0.239 µM and 0.0037 µM, respectively.

On to `CC1CCN(C[C@@H](C)COc2ccc(Cl)cc2)CC1`, for which the Ki worked out at 0.062 µM on Sigma 2 receptor and 0.0187 µM in test [2]. In addition, the Ratio in test [1] was 36; in the test filed under Cavia porcellus it was 11.

In the case of `CC1CCN(CC[C@H](C)Oc2ccc(Cl)cc2)CC1`, the inhibitory constant (Ki) at Sigma 2 receptor came to 0.0659 µM; in test [2], 0.012 µM.

Turning to `CC1CCN([C@H](C)CCOc2ccc(Cl)cc2)CC1`, the figures for the inhibition constant Ki (on Sigma 2 receptor; in test [2]) were 0.0151 µM and 0.00779 µM, respectively.

The values are drawn from ChEMBL document CHEMBL1136792, “Synthesis of chiral 1-[omega-(4-chlorophenoxy)alkyl]-4-methylpiperidines and their biological evaluation at sigma1, sigma2, and sterol delta8-delta7 isomerase sites” (J Med Chem, 2003).
